Columns and labels:
Type in all cases: cell-based
[1] = molecular target: T1, chimeric protein PPARα-Gal4 (Homo sapiens, UniProt Q07869); experiment: PPAR activation, Gal4 chimera luciferase reporter in co-transfected CV-1 cells; conditions: 50 μM; CV-1 cells (monkey kidney cells); 18 hours contact; relative to control cells without product
T1 construct: expressed in transfected cells; host or cells: CV-1 cells (monkey kidney cells)
T1 sequence (Q07869 239-466 limits assumed): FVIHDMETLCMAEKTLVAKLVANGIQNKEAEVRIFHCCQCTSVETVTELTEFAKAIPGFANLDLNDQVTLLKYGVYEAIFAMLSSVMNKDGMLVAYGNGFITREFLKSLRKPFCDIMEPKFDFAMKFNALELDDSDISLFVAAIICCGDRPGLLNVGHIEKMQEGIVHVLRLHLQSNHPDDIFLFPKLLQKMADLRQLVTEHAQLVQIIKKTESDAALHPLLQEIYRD
Method: (§1) The measurement of the PPAR activation was performed according to a technique described by Lehmann et al. (1995, J. Biol. Chem. 270: 12953-12956).
(§2) CV-1 cells (monkey kidney cells) are co-transfected with an expression vector for the chimeric proteins PPARα-Gal4 or PPARγ-Gal4 and with a “reporter” plasmid that allows the expression of the luciferase gene placed under the control of a promoter containing Gal4 response elements.
(§3) The cells are inoculated in 96-well microplates and co-transfected using a commercial reagent with the reporter plasmid (pG5-tk-pGL3) and the expression vector for the chimeric protein (PPARα-Gal4 or PPARγ-Gal4). After incubating for 4 hours, whole culture medium (comprising 10% foetal calf serum) is added to the wells. After 24 hours, the medium is removed and replaced by whole medium comprising the test products (50 μM final).
(§4) The products are left in contact with the cells for 18 hours. The cells are then lysed and the luciferase activity is measured using a luminometer. A PPAR activation factor can then be calculated by means of the activation of the expression of the reporter gene induced by the product (relative to the control cells that have not received any product).

[2] = molecular target: T2, chimeric protein PPARγ-Gal4 (Homo sapiens, UniProt P37231); experiment: as above; conditions: 50 μM; CV-1 cells (monkey kidney cells); 18 hours contact; relative to control cells without product
T2 construct: expressed in transfected cells; host or cells: CV-1 cells (monkey kidney cells)
T2 sequence (P37231 238-503 limits assumed): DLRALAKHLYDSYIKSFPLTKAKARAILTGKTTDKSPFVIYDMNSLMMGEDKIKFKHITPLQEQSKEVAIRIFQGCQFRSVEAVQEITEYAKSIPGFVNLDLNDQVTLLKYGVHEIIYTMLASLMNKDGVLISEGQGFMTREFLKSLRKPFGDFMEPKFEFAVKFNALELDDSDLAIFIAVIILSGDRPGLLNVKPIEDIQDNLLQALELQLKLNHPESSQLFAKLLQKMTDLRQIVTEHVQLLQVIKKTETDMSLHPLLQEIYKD
Method: as §1, §2, §3, §4

[3] = molecular target: T3, vector expressing Gal4 alone (Saccharomyces cerevisiae, UniProt P04386); experiment: Luciferase reporter control without PPAR ligand binding region in CV-1 cells; conditions: absence of the binding region for the PPAR α or γ ligand (Gal4 alone)
T3 construct: expressed in transfected cells; host or cells: CV-1 cells (monkey kidney cells)
Text: CV-1 cells (monkey kidney cells) are co-transfected with an expression vector for the chimeric proteins PPARα-Gal4 or PPARγ-Gal4 and with a “reporter” plasmid that allows the expression of the luciferase gene placed under the control of a promoter containing Gal4 response elements. The cells are inoculated in 96-well microplates and co-transfected using a commercial reagent with the reporter plasmid (pG5-tk-pGL3) and the expression vector for the chimeric protein (PPARα-Gal4 or PPARγ-Gal4). After incubating for 4 hours, whole culture medium (comprising 10% foetal calf serum) is added to the wells. After 24 hours, the medium is removed and replaced by whole medium comprising the test products (50 μM final). The products are left in contact with the cells for 18 hours. The cells are then lysed and the luciferase activity is measured using a luminometer. A PPAR activation factor can then be calculated by means of the activation of the expression of the reporter gene induced by the product (relative to the control cells that have not received any product). […] In the absence of the binding region for the PPAR α or γ ligand (vector expressing Gal4 alone), the luciferase activity measured in the presence of this product is zero.

T3 sequence (P04386 1-147 limits assumed): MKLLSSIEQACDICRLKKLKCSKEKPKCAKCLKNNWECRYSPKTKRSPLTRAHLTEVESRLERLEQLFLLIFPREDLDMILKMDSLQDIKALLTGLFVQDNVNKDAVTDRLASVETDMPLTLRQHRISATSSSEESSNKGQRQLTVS

PPAR activation factor (activation of expression of the luciferase reporter gene) [1]: seven | PPAR activation factor (activation of expression of the luciferase reporter gene) [2]: five | luciferase activity measured in the presence of the product [3]: zero
SMILES: CCCC(C=CC(=O)c1cc(OC)ccc1OC)=CC(=O)OCC [Example 12, ethyl 6-(2,5-dimethoxyphenyl)-6-oxo-3-propylhexa-2,4-dienoate]

Reference: patent US20060052447A1, “Novel substituted arylhexadienoic acids and esters thereof which can be used for the treatment and prevention of diabetes, dyslipidaemia and atherosclerosis, pharmaceutical compositios comprising them and processes for the preparation of them” (Merck Patent GmbH, priority 2002, published 2006)
